Values of other authors, collected in patent US10316056B2, “Chemical compounds and use thereof for improving muscular quality” (BIOPHYTIS, priority 2014, dated 2019).

Experiments:
[1] = test system: muscle cells derived from the C2C12 murine line; settings: literature, Kazi et al., 2010; cited from earlier work
[2] = test system: phosphorylations that activate proteins such as Akt or S6 kinase; settings: could reach; literature, Kazi et al., 2010; cited from earlier work

## IGF-1: reference product (100 ng/ml) that stimulates protein synthesis
[1]
  increase in protein synthesis: 20%
[2]
  stimulation of targets of the signaling pathway: about 200%
